Results: patent US20190185479A1, “BICYCLIC NITROGENATED HETEROCYCLIC COMPOUND” (MITSUBISHI TANABE PHARMA CORPORATION, priority 2016, published 2019)
pKi: −log10 of the molar value.

Experiments:
Format in all cases: biochemical
hPDE8B = target: T1, hPDE8B (Homo sapiens, UniProt O95263); test: PDE7 selectivity test (Ki value), Experimental Example 2: hPDE8B; conditions: Ki from IC50 by Cheng-Prusoff, read-out: PDE inhibition constant Ki, PDE8
T1 construct: purchased SB Drug Discovery
Experimental: (§1) hPDE1A, hPDE2A, hPDE3A, hPDE4D, hPDE5A, and hPDE8B were purchased from SB Drug Discovery. hPDE7B was isolated by the same method as [Method for preparing samples 1], and hPDE9A, hPDE10A, and hPDE11A were isolated by the same method as hPDE7B, i.e., isolated from COS-7 cells transfected with plasmids encoding each PDE. PDE6 was purified and isolated from bovine retina (bovine PDE6).
(§2) Prior to the calculation of Ki value, Km value of each PDE against cAMP or cGMP was calculated. Each PDE diluted with an assay buffer so that it would have an appropriate enzyme activity, and six or more concentrations of cAMP or cGMP were reacted at room temperature for 60 minutes. Regarding PDE using cAMP as a substrate, PDELight (trademark) HTS cAMP phosphodiesterase Kit (Lonza) was used to measure a degradation product, 5′-AMP. Also, regarding PDE using cGMP as a substrate, […] of perchloric acid was added to the mixture to stop the reaction, and the resulting mixture was subjected to LC-MS/MS to measure the residual cGMP concentration. The amount of degraded substrate in each substrate concentration was calculated, the concentration of the added substrate was plotted on the horizontal axis, the amount of degraded substrate was plotted on the vertical axis, and Km value was calculated by non-linear regression on the basis of Michaelis-Menten equation. Km value (substrate) of each PDE was hPDE1A: 4.3 (cGMP), hPDE2A: 36 (cAMP), hPDE3A: 0.11 (cAMP), hPDE4D: 0.90 (cAMP), hPDE5A: 3.9 (cGMP), bovine PDE6:9.8 (cGMP), hPDE7B: 0.015 (cAMP), hPDE8B: 0.63 (cAMP), hPDE9A: 0.0037 (cGMP), hPDE10A: 0.051 (cAMP), and hPDE11A: 1.4 (cAMP) μmol/L, respectively.
(§3) Next, PDE inhibition assay of a compound was carried out using each PDE. The PDE inhibition assay was basically carried out by the same enzyme reaction method as [Assay procedure 1], and the degraded amount of cAMP or cGMP was measured by the same method as [Assay procedure 2]. In the assay, a concentration approximated to Km value of each PDE against cAMP or cGMP was used as a substrate concentration. Meanwhile, regarding hPDE5A, hPDE8B, and hPDE9A, IMAP (trademark) FP Phosphodiesterase Evaluation Assay Kit (Molecular Devices) was used to measure the degradation of FAM-cAMP or FAM-cGMP by fluorescence depolarization technique.
(§4) Each compound was evaluated at six or more concentrations with common ratio 10. Each inhibition rate was calculated according to <Method for data calculation 1>, and then each IC50 value was calculated by sigmoid regression. The resulting IC50 value was used in the following Cheng-Prusoff equation to calculate each Ki value. Ki=IC50/(1+[S]/Km), wherein [S] represents a substrate concentration used

hPDE5A = target: T2, hPDE5A (Homo sapiens, UniProt O76074); test: PDE7 selectivity test (Ki value), Experimental Example 2: hPDE5A; conditions: Ki from IC50 by Cheng-Prusoff, read-out: PDE inhibition constant Ki, PDE5
T2 construct: purchased SB Drug Discovery
Experimental: as §1, §2, §3, §4

hPDE10A = hPDE10A (Homo sapiens, UniProt Q9Y233); test: PDE7 selectivity test (Ki value), Experimental Example 2: hPDE10A; conditions: Ki from IC50 by Cheng-Prusoff, read-out: PDE inhibition constant Ki, PDE10
hPDE10A, sequence (Q9Y233 290-1055 limits assumed): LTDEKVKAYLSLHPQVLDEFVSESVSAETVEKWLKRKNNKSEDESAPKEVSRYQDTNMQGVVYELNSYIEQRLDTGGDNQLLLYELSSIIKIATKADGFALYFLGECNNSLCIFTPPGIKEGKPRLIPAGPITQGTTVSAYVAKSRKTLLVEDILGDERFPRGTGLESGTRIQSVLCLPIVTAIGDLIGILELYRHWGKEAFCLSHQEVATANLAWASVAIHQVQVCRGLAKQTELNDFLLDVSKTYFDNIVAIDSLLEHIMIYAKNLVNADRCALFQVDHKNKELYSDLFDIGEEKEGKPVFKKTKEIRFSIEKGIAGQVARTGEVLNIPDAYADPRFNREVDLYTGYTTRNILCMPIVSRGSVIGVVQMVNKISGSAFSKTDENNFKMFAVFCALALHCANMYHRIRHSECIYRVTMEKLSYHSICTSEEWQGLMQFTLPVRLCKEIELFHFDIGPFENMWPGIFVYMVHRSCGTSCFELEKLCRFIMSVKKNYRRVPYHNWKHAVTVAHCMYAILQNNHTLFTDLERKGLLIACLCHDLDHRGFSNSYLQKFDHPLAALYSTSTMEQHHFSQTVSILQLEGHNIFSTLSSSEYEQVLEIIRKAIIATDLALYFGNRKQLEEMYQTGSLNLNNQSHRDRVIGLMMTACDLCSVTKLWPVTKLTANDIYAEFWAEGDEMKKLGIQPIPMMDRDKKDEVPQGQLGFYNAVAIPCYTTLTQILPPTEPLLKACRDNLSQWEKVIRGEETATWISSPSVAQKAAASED
Experimental: as §1, §2, §3, §4

T1 sequence (O95263 whole entry): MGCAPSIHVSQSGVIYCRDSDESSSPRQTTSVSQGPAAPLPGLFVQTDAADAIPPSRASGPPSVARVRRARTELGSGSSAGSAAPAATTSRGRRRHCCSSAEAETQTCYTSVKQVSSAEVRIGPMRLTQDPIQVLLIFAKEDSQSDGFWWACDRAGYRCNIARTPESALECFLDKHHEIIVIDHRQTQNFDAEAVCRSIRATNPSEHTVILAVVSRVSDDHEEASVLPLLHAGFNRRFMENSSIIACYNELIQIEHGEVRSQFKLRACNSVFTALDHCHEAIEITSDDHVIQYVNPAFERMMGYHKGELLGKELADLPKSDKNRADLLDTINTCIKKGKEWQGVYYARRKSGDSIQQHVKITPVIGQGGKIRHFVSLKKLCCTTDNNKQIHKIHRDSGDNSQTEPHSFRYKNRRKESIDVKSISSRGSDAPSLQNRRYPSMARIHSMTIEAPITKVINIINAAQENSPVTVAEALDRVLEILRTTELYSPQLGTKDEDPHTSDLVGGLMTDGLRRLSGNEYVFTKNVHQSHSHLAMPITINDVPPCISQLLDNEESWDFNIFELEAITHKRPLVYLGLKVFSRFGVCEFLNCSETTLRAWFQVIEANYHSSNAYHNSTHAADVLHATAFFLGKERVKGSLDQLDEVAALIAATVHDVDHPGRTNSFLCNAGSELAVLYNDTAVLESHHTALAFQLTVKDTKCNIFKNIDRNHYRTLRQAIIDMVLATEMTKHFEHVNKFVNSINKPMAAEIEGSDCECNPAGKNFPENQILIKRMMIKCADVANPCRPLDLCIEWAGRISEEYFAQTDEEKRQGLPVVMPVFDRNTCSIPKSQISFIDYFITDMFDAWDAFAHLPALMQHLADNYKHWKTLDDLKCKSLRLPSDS

Row | SMILES | pKi (hPDE8B) | pKi (hPDE5A) | pKi (hPDE10A)
1 | CC1CCCCC1n1nnc2c(N)ncnc21 (single isomer, unassigned) [Example 191, 3-(cis-2-methylcyclohexyl)-3H-[1,2,3]triazolo[4,5-d]pyrimidin-7-amine] | 5.28 | < 4.01 | 5.62
2 | Nc1nccn2c(C3CCCCC3)nnc12 [Example 141, 3-cyclohexyl[1,2,4]triazolo[4,3-a]pyrazin-8-amine] | 5.85 | < 5.01 | < 5.29

More lines, in order of rising pKi (hPDE8B), values ahead:

Row | pKi (hPDE8B) | pKi (hPDE5A) | pKi (hPDE10A) | SMILES
3 | 5.85 | < 4.01 | 5.59 | C[C@@H]1CCC[C@H](c2nnc3c(N)nccn23)C1 [Example 204, 3-[(1S,3R)-3-methylcyclohexyl][1,2,4]triazolo[4,3-a]pyrazin-8-amine]
4 | 6.11 | < 4.01 | 4.92 | Nc1ncnc2c1nnn2C1CCCCC1 [Example 3, 3-cyclohexyl-3H-[1,2,3]triazolo[4,5-d]pyrimidin-7-amine]
5 | 7.07 | < 5.01 | 5.96 | Cc1nc(N)c2nnn(C3CCCCC3)c2n1 [Example 4]
